# Data taken from patent US7153855B2, “Pyrazolopyridinyl pyrimidine therapeutic compounds” (SmithKline Beecham Corporation, priority 2001, dated 2006).
# Structures can show the parent of a compound that is named as a salt.
# Tested on: HSV-1
# Assay: HSV-1 infection of Vero 76 cells, viral DNA detected by hybridization capture (chemiluminescence)
# Format: cell-based
# Settings: Human alphaherpesvirus 1, Vero 76
# Outline: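 Vero 76 cells infected 45 min at 37° C with HSV-1 (MOI=0.001), seeded at 5×10^4 cells/well in 2% FBS medium with compounds, incubated 40–48 h, then lysed in 0.2 N NaOH/1% detergent. Viral DNA captured by UL13 plasmid, hybridized overnight at 42° C with digoxigenin-labeled UL15 probe, detected by anti-digoxigenin-HRP chemiluminescence.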
row,Compound,IC50 [nM]
1,"CCOP(=O)(NCCCCNc1cccc2c(-c3ccnc(NC4CCCC4)n3)c(-c3ccc(OC)cc3)nn12)OCC [Example 89, Diethyl 4-{[3-[2-(cyclopentylamino)pyrimidin-4-yl]-2-(4-methoxyphenyl)pyrazolo[1,5-a]pyridin-7-yl]amino}butylamidophosphate]",800

# Same assay, conditions: Human alphaherpesvirus 1; HSV-1 in Vero 76 cells, MOI=0.001, compounds incubated 40–48 hours at 37° C.; read-out: IC50
row,IC50 [nM],Compound
1,300,"Oc1ccc(-c2nn3c(NC4CC4)cccc3c2-c2ccnc(NC3CCCC3)n2)cc1 [Example 67, 4-[3-[2-(Cyclopentylamino)-4-pyrimidinyl]-7-(cyclopropylamino)pyrazolo[1,5-a]pyridin-2-yl]phenol]"
2,2300,"Oc1ccc(-c2nn3c(NC4CC4)cccc3c2-c2ccnc(NC3CC3)n2)cc1 [Example 69, 4-{7-(Cyclopropylamino)-3-[2-(cyclopropylamino)-4-pyrimidinyl]-pyrazolo[1,5-a]pyridin-2-yl}phenol]"
3,500,"C=CCOc1ccc(-c2nn3c(NC4CCCC4)cccc3c2-c2ccnc(NC3CC3)n2)cc1 [Example 71, 2-[4-(Allyloxy)phenyl]-N-cyclopentyl-3-[2-(cyclopropylamino)-4-pyrimidinyl]pyrazolo[1,5-a]pyridin-7-amine]"
4,2000,"C=CCOc1ccc(-c2nn3c(NC4CC4)cccc3c2-c2ccnc(NC3CC3)n2)cc1 [Example 73, 2-[4-(Allyloxy)phenyl]-N-cyclopropyl-3-[2-(cyclopropylamino)-4-pyrimidinyl]pyrazolo[1,5-a]pyridin-7-amine]"
5,27000,"CCCCNc1nccc(-c2c(-c3ccc(N4CCOCC4)cc3)nn3c(NCCCC)cccc23)n1 [Example 75, N-Butyl-3-[2-(butylamino)pyrimidin-4-yl]-2-(4-morpholin-4-ylphenyl)pyrazolo[1,5-a]pyridin-7-amine]"
6,600,"COc1ccc(-c2nn3c(NCCCCN)cccc3c2-c2ccnc(NC3CCCC3)n2)cc1 [Example 81, N-[3-[2-(Cyclopentylamino)pyrimidin-4-yl]-2-(4-methoxyphenyl)-pyrazolo[1,5-a]pyridin-7-yl]butane-1,4-diamine]"
7,600,"COc1ccc(-c2nn3c(NCCCCNS(C)(=O)=O)cccc3c2-c2ccnc(NC3CCCC3)n2)cc1 [Example 86, N-(4-{[3-[2-(Cyclopentylamino)pyrimidin-4-yl]-2-(4-methoxyphenyl)pyrazolo[1,5-a]pyridin-7-yl]amino}butyl)methanesulfonamide]"
8,1000,"COc1ccc(-c2nn3c(NCCCCNC(=O)NS(=O)(=O)c4ccc(C)cc4)cccc3c2-c2ccnc(NC3CCCC3)n2)cc1 [Example 87, N-{[(4-{[3-[2-(Cyclopentylamino)pyrimidin-4-yl]-2-(4-methoxyphenyl)pyrazolo[1,5-a]pyridin-7-yl]amino}butyl)amino]carbonyl}-4-methylbenzenesulfonamide]"
9,200,"COc1ccc(-c2nn3c(NCCCCO)cccc3c2-c2ccnc(NC3CCCC3)n2)cc1 [Example 90, 4-{[3-[2-(Cyclopentylamino)pyrimidin-4-yl]-2-(4-methoxyphenyl)-pyrazolo[1,5-a]pyridin-7-yl]amino}butan-1-ol]"
10,300,"COc1ccc(-c2nn3c(NCCCCOP(=O)(O)O)cccc3c2-c2ccnc(NC3CCCC3)n2)cc1 [Example 92, 4-{[3-[2-(Cyclopentylamino)pyrimidin-4-yl]-2-(4-methoxy-phenyl)pyrazolo[1,5-a]pyridin-7-yl]amino}butyl phosphate diammonium salt]"
11,700,"[N-]=[N+]=Nc1cccc(-c2nn3c(NC4CCCC4)cccc3c2-c2ccnc(NC3CCCC3)n2)c1 [Example 93, 2-(3-Azidophenyl)-N-cyclopentyl-3-[2-(cyclopentylamino)pyrimidin-4-yl]pyrazolo[1,5-a]pyridin-7-amine]"
12,300,"COc1ccc(-c2nn3c(NCCNS(C)(=O)=O)cccc3c2-c2ccnc(NC3CCCC3)n2)cc1 [Example 95, N-(2-{[3-[2-(Cyclopentylamino)-4-pyrimidinyl]-2-(4-methoxy-phenyl)pyrazolo[1,5-a]pyridin-7-yl]amino}ethyl)methanesulfonamide]"
13,300,"Clc1cccc(-c2nn3c(NC4CCCC4)cccc3c2-c2ccnc(NC3CC3)n2)c1 [Example 100, 2-(3-Chlorophenyl)-N-cyclopentyl-3-[2-(cyclopropylamino)-4-pyrimidinyl]pyrazolo[1,5-a]pyridin-7-amine]"
14,200,"Clc1cccc(-c2nn3c(NC4CC4)cccc3c2-c2ccnc(NC3CCCC3)n2)c1 [Example 101, 2-(3-Chlorophenyl)-3-[2-(cyclopentylamino)-4-pyrimidinyl]-N-cyclopropylpyrazolo[1,5-a]pyridin-7-amine]"
15,200,"COCCNc1cccc2c(-c3ccnc(NC4CCCC4)n3)c(-c3cccc(Cl)c3)nn12 [Example 104, 2-(3-Chlorophenyl)-3-[2-(cyclopentylamino)-4-pyrimidinyl]-N-(2-methoxyethyl)pyrazolo[1,5-a]pyridin-7-amine]"

# Further lines, the compound ahead of its results:
row,Compound,IC50 [nM]
1,"Oc1ccc(-c2nn3c(NC4CCCC4)cccc3c2-c2ccnc(NC3CC3)n2)cc1 [Example 68, 4-{7-(Cyclopentylamino)-3-[2-(cyclopropylamino)-4-pyrimidinyl]-pyrazolo[1,5-a]pyridin-2-yl}phenol]",1200
2,"c1cc(NC2CC2)n2nc(-c3ccc(OCC4CC4)cc3)c(-c3ccnc(NC4CCCC4)n3)c2c1 [Example 70, 3-[2-(Cyclopentylamino)-4-pyrimidinyl]-N-cyclopropyl-2-[4-(cyclopropylmethoxy)phenyl]pyrazolo[1,5-a]pyridin-7-amine]",600
3,"c1cc(NC2CC2)n2nc(-c3ccc(OCC4CC4)cc3)c(-c3ccnc(NC4CC4)n3)c2c1 [Example 72, N-Cyclopropyl-3-[2-(cyclopropylamino)-4-pyrimidinyl]-2-[4-(cyclopropylmethoxy)phenyl]pyrazolo[1,5-a]pyridin-7-amine]",1400
4,"COC(=O)CNc1cccc2c(-c3ccnc(NC4CCCC4)n3)c(-c3ccc(OC)cc3)nn12 [Example 79, Methyl N-[3-[2-(cyclopentylamino)pyrimidin-4-yl]-2-(4-methoxyphenyl)pyrazolo[1,5-a]pyridin-7-yl]glycinate]",2500
5,"COc1ccc(-c2nn3c(NCCCCNC(=O)CCCC[C@@H]4SC[C@@H]5NC(=O)N[C@@H]54)cccc3c2-c2ccnc(NC3CCCC3)n2)cc1 [Example 82, 5-[(3aS,4S,6aR)-2-Oxohexahydro-1H-thieno[3,4-d]imidazol-4-yl]-N-(4-{[3-[2-(cyclopentylamino)pyrimidin-4-yl]-2-(4-methoxyphenyl)pyrazolo[1,5-a]pyridin-7-yl]amino}butyl)pentanamide]",400
6,"COc1ccc(-c2nn3c(N)cccc3c2-c2ccnc(NC3CCCC3)n2)cc1 [Example 83, 3-[2-(Cyclopentylamino)pyrimidin-4-yl]-2-(4-methoxyphenyl)pyrazolo-[1,5-a]pyridin-7-amine]",700
7,"COc1ccc(-c2nn3c(NCCCCNC(=N)N)cccc3c2-c2ccnc(NC3CCCC3)n2)cc1 [Example 85, N-(4-{[3-[2-(Cyclopentylamino)pyrimidin-4-yl]-2-(4-methoxyphenyl)pyrazolo[1,5-a]pyridin-7-yl]amino}butyl)guanidine]",4000
8,"COc1ccc(-c2nn3c(NCCCCNC(=O)CCC(=O)O)cccc3c2-c2ccnc(NC3CCCC3)n2)cc1 [Example 88, 4-[(4-{[3-[2-(Cyclopentylamino)pyrimidin-4-yl]-2-(4-methoxyphenyl)pyrazolo[1,5-a]pyridin-7-yl]amino}butyl)amino]-4-oxobutanoic acid]",9000
9,"COc1ccc(-c2nn3c(NCC(=O)N4CCCC4)cccc3c2-c2ccnc(NC3CCCC3)n2)cc1 [Example 94, 3-[2-(Cyclopentylamino)-4-pyrimidinyl]-2-(4-methoxyphenyl)-N-[2-oxo-2-(1-pyrrolidinyl)ethyl]pyrazolo[1,5-a]pyridin-7-amine]",6200
10,"COc1ccc(-c2nn3c(NCCN)cccc3c2-c2ccnc(NC3CCCC3)n2)cc1 [Example 96, N′-[3-[2-(Cyclopentylamino)-4-pyrimidinyl]-2-(4-methoxyphenyl)pyrazolo[1,5-a]pyridin-7-yl]-1,2-ethanediamine]",1100
11,"Fc1cccc(-c2nn3c(N4CCOCC4)cccc3c2-c2ccnc(NC3CCCC3)n2)c1 [Example 97, N-Cyclopentyl-4-[2-(3-fluorophenyl)-7-(4-morpholinyl)pyrazolo[1,5-a]pyridin-3-yl]-2-pyrimidinamine]",700
12,"FC(F)(F)c1cccc(-c2nn3c(NC4CCCC4)cccc3c2-c2ccnc(NC3CCCC3)n2)c1 [Example 98, N-Cyclopentyl-3-[2-(cyclopentylamino)-4-pyrimidinyl]-2-[3-(trifluoromethyl)phenyl]pyrazolo[1,5-a]pyridin-7-amine]",300
13,"Clc1cccc(-c2nn3c(NC4CC4)cccc3c2-c2ccnc(NC3CC3)n2)c1 [Example 99, 2-(3-Chlorophenyl)-N-cyclopropyl-3-[2-(cyclopropylamino)-4-pyrimidinyl]pyrazolo[1,5-a]pyridin-7-amine]",500
14,"Fc1cccc(-c2nn3c(NC4CCCC4)cccc3c2-c2ccnc(NC3CC3)n2)c1 [Example 102, N-Cyclopentyl-3-[2-(cyclopropylamino)-4-pyrimidinyl]-2-(3-fluorophenyl)pyrazolo[1,5-a]pyridin-7-amine]",700
15,"Clc1cccc(-c2nn3c(N4CCOCC4)cccc3c2-c2ccnc(NC3CCCC3)n2)c1 [Example 103, 4-[2-(3-Chlorophenyl)-7-(4-morpholinyl)pyrazolo[1,5-a]pyridin-3-yl]-N-cyclopentyl-2-pyrimidinamine]",500
16,"Fc1cccc(-c2nn3c(NC4CC4)cccc3c2-c2ccnc(NC3CCCC3)n2)c1 [Example 105, 3-[2-(Cyclopentylamino)-4-pyrimidinyl]-N-cyclopropyl-2-(3-fluorophenyl)pyrazolo[1,5-a]pyridin-7-amine]",600
